Source: patent US20160023126A1, “SPRAY DRYING TECHNIQUES” (President and Fellows of Harvard College, priority 2010, published 2016)

How the values were obtained:
Type in all cases: physicochemical
[1] = Energy dispersive X-ray (EDX) analysis of chemical composition after spray drying; settings: unprocessed vs processed danazol, either solvent system (IPA/water, IPA/IPA)
Description: Scale bar denotes 300 nm.
(§1) Processed danazol was collected at distances between 5 cm and 30 cm from the spray nozzle. For SEM analysis, the spray was collected on glass slides and coated with Pd/Pt. An Ultra55 Field Emission SEM (Zeiss) coupled with an EDX detector was used. The size distribution of the nanoparticles was determined by image analysis of SEM photographs using ImageJ. For XRPD analysis, samples were collected in an aluminum box over which the spray dryer was mounted. XPRD analysis was performed using a Scintag XDS2000 powder diffractometer (Scintag, Cupertino, California, USA) with Cu Ka (K-alpha) radiation at 40 kV and 30 mA. The XRD patterns were taken at room temperature in the range of 10°≦2θ≦50° (2 theta) with a scan rate of 1° min^−1 and a step size of 0.02°.

[2] = SEM analysis of particle size and morphology of spray-dried drug; settings: microfluidic spray dryer; danazol in IPA and pure IPA (antisolvent replaced by solvent)
Description: To evaluate the effect of microfluidic processing on particle size and morphology of the hydrophobic drug, no stabilizer or surfactant was added to influence the particle growth. […] Morphology and particle size of the processed drug was examined by scanning electron microscopy (“SEM”) analysis. […] The scale bar denotes 300 nm.
as §1

[3] = X-ray powder diffraction analysis (XRPD) of crystallinity
From the text: X-ray powder diffraction analysis (“XRPD”) was employed to determine the effect of spatial sampling on the crystallinity of danazol. Characteristic peaks at 20 (2 theta) of 15.8, 17.1 and 19.0 in the XRD pattern of unprocessed danazol were used as reference. In processed danazol, the intensity of the characteristic peaks decreased as the collection distance of the spray is increased. These figures show nanoparticles, approximately 20 nm to 60 nm in diameter, assembled in a dense network.
as §1

C#C[C@]1(O)CC[C@H]2[C@@H]3CCC4=Cc5oncc5C[C@]4(C)[C@H]3CC[C@@]21C [danazol]
chemical composition of the drug during the spray drying process [1]: remained unchanged
size and morphology of nanoparticles compared with IPA/water system [2]: identical size and morphology
crystallinity (XRPD) ([3]; conventional Mini Spray Dryer B 191, solution of danazol in IPA): retained
crystallinity (intensity of characteristic XRPD peaks) ([3]; microfluidic spray dryer, collection distance of the spray increased (5 cm to 30 cm)): initial crystallinity of the drug was not recovered
crystallinity (XRPD pattern) ([3]; microfluidic spray dryer, danazol in IPA with water, collected 5 cm from nozzle): crystalline aggregates
